Here are results for two compounds from US4649215A, “Aliphatic thioethers” (Ciba-Geigy Corporation, priority 1984, dated 1987).

What is called pIC50 is −log10 of the IC50, conventionally taken in molar units. A low value points to a high IC50.

One assay relates to leucotrienes. Description: leucotriene-antagonistic activity (test not specified). The settings on record: reverse absolute configuration at C-5 and C-6 compared with natural leucotrienes. The text has this:
Thus, in various test arrangements in vitro they have a clear leucotriene-antagonistic action.
As already mentioned above, there is a general analogy between the structure of the compounds of the formula I according to the invention and that of leucotrienes, especially in the obligatory trans-configuration of the vicinal S- and O-atoms mentioned at the beginning and the total structure of the mercaptoalkanoic acid residue (A) (especially in its typical form of a cysteine peptide). They differ from leucotrienes essentially in lacking the characteristic terminal carboxy group in the olefinic radical (B).

Assay [1] has as its target phospholipase A2 from human leucocytes. Description: inhibition of phospholipase A2 obtained from human leucocytes. The settings on record: human leucocyte enzyme, 37° 1 hour, pH 7, 14C-oleic acid labelled E. coli phospholipides. Format: biochemical.
Procedure: Human neutrophilic polymorphonuclear leucocytes are isolated from "buffy coats" by multistage fractional sedimentation and deep-frozen. Phospholipase A2 is extracted from the cell suspension by homogenisation with the addition of icecold 0.36N H2 SO4 in 2N NaCl, and the supernatant obtained after centrifugation at 10,000× g is dialysed against sodium acetate buffer pH 4.5.
In order to determine the enzyme activity, enzyme (10-30 μg protein) is incubated at 37° for 1 hour in 0.1M tris/HCl buffer pH 7 with the addition of 1 mM CaCl2 and substrate consisting of phospholipides (2 μm) of Escherichia coli that have been radioactively labelled with ^14 C-oleic acid by means of biosynthesis. The reaction is stopped by the addition of Dole reagent (isopropanol/heptane/1N H2 SO4 40:10:1, v/v) and the ^14 C-oleic acid selectively released by phospholipase A2 is extracted. Substrate also extracted at the same time is completely removed by filtering the extract through a column of silica gel. The ^14 C-oleic acid in the eluate is determined by radiometry.
In order to ascertain the inhibitory action of test substances on phospholipase A2, these substances are added in the form of solutions in water, dimethyl sulphoxide (final concentration in the mixture up to 5% v/v) or ethanol (final concentration in the mixture up to 2.5% v/v) to the incubation mixture. […]
The target of assay [2] is phospholipase C from human thrombocytes. The assay can be described thus: inhibition of phospholipase C obtained from human thrombocytes. It counts as biochemical. The settings on record: human thrombocyte enzyme, 37° 5 minutes, pH 6, phosphatidyl-[14C]-inositol.
Procedure: To ascertain the enzyme activity, enzyme (20-100 μg protein) is incubated at 37° for 5 minutes in 0.025M tris/malate buffer pH 6 with the addition of 0.2 mM CaCl2 and 0.02 mM radioactively labelled substrate, phosphatidyl-[^14 C]-inositol. The reaction is stopped by extraction by shaking with CHCl3 /CH3 OH 2:1 (v/v). In the course of this unconsumed substrate is extracted into the organic phase, whilst the reaction product, ^14 C-inositol phosphate, remains in the aqueous phase and can be measured by radiometry of an aliquot.
In order to ascertain the inhibitory action of test substances on phospholipase C, these substances are added in the form of solutions in water, dimethyl sulphoxide (final concentration in the mixture up to 5%, v/v) or ethanol (final concentration in the mixture up to 2.5%, v/v) to the incubation mixture. The strength of action of the test substances is expressed by the IC50, that is to say the concentration that causes a 50% inhibition of the control activity. The IC50 is ascertained on a graph by plotting the percentage inhibition on the ordinate against the log of the concentration (μM) on the abscissa.

pIC50: −log10 of the molar value. Structures can show the parent of a compound that is named as a salt.

For the compound `CCCCCCCC\C=C/C=C/C=C/[C@H](SCC(NC(=O)C(F)(F)F)C(=O)NCC(=O)O)[C@H](O)CCCC` (stereo partly drawn) [Example 60A, Sodium salt of N-[S-5(R),6(S)-5-hydroxy-7,9-trans-11-cis-icosatrien-6-yl-N-trifluoroacetylcysteinyl]-glycine], the “activity (leucotriene antagonism), in words” value in the assay on leucotrienes is reported as “highly active”. Consider `CCN(CC)CCCC(C)Nc1c2ccc(Cl)cc2nc2ccc(OC)cc12` (stereo not drawn) [mepacrine], for which the pIC50 is 2.80 in assay [1] and 4.70 in assay [2].
